In patent US3974140A, “Ureidoacetamido-penicillins” (Bayer Aktiengesellschaft, priority 1970, dated 1976):

Columns and labels:
Test in all cases: MIC, liquid medium test tube series dilution test
[1] = tested on: E. coli A 261; format: cell-based; details: E. coli A 261, 24 hours, 37°C
Procedure: (§1) The chemotherapeutic activity of the new penicillins was tested in vivo and in vitro. The in vitro inhibition values (MIC = minimum inhibition concentration (see Tables 1 and 2) were determined in a liquid medium in the test tube series dilution test, with readings being taken after 24 hours' incubation at 37°C. The MIC is indicated by the non-turbid test tube in the dilution series. A complete medium of the following composition was used as the nutrient medium:
(§2) The figures quoted in the Examples for the effectiveness against certain bacteria (units/ml) are minimum inhibitory concentrations in the test tube series dilution test after 24 hours' incubation.

[2] = tested on: Streptoc. faec. ATCC 9790; format: cell-based; details: Strep. faec. (Enterococcus) ATCC 9790, 24 hours, 37°C
Procedure: as §1, §2

[3] = tested on: Klebsiella 63; format: cell-based; details: Klebsiella 63, 24 hours, 37°C
Procedure: as §1, §2

[4] = tested on: E. coli C 165; format: cell-based; details: E. coli C 165, 24 hours, 37°C
Procedure: as §1, §2

[5] = tested on: Proteus vulg. 3400; format: cell-based, Proteus vulgaris; details: Proteus vulg. 3400, 24 hours, 37°C
Procedure: as §1, §2

[6] = tested on: Psdm. aerug. Walter; format: cell-based, Pseudomonas aerug.; details: 24 hours, 37°C
Procedure: as §1, §2

[7] = tested on: Staph. aureus 133; format: cell-based, Staphylococcus aureus; details: Staph. aureus 133, 24 hours, 37°C
Procedure: as §1, §2

[8] = tested on: Proteus vulg. 1017; format: cell-based, Proteus vulgaris; details: Proteus vulg. 1017, 24 hours, 37°C
Procedure: as §1, §2

[9] = tested on: E. coli 183/58; format: cell-based; details: E. coli 183/58, 24 hours, 37°C
Procedure: as §1, §2

[10] = tested on: Psdm. aerug. Bonn; format: cell-based, Pseudomonas aerug.; details: 24 hours, 37°C
Procedure: as §1, §2

[11] = tested on: E. coli 14; format: cell-based; details: E. coli 14, 24 hours, 37°C
Procedure: as §1, §2

## CN(C(=O)CCCCl)C(=O)NC(C(=O)N[C@@H]1C(=O)N2[C@@H]1SC(C)(C)[C@@H]2C(=O)O)c1cccs1 (stereo partly drawn) [Example 5, Sodium D,L-(3-γ-chlorobutyryl-3-methyl-ureido)-(2-thienyl)methylpenicillin]
[1]
  MIC: 100-500 units/ml
[2]
  MIC: 100-500 units/ml
[3]
  MIC: 20-100 units/ml
[4]
  MIC: 4-20 units/ml
[5]
  MIC: 20-100 units/ml
[6]
  MIC: 20-100 units/ml
[7]
  MIC: < 0.8 units/ml

## COC(=O)N(C)C(=O)NC(C(=O)N[C@@H]1C(=O)N2[C@@H]1SC(C)(C)[C@@H]2C(=O)O)c1cccs1 (stereo partly drawn) [Example 20, Sodium D,L-α-(3-methoxycarbonyl-3-methyl-ureido)-2-thienylmethylpenicillin]
[1]
  MIC: > 500 units/ml
[2]
  MIC: 20-100 units/ml
[3]
  MIC: 20-100 units/ml
[4]
  MIC: 20-100 units/ml
[5]
  MIC: 100-500 units/ml
[6]
  MIC: 100-500 units/ml
[7]
  MIC: < 0.8 units/ml

## C=CCN(C(=O)NC(C(=O)N[C@@H]1C(=O)N2[C@@H]1SC(C)(C)[C@@H]2C(=O)O)c1cccs1)C(=O)c1ccccc1 (stereo partly drawn) [Example 21, Sodium D,L-α-(3-benzoyl-3-allyl-ureido)-2-thienylmethylpenicillin]
[1]
  MIC: > 500 units/ml
[2]
  MIC: 100-500 units/ml
[3]
  MIC: 20-100 units/ml
[4]
  MIC: 20-100 units/ml
[5]
  MIC: 20-100 units/ml
[6]
  MIC: 100-500 units/ml
[7]
  MIC: < 0.8 units/ml

## CN(C(=O)NC(C(=O)N[C@@H]1C(=O)N2[C@@H]1SC(C)(C)[C@@H]2C(=O)O)c1cccs1)C(=O)c1ccco1 (stereo partly drawn) [Example 22, Sodium D,L-α-(3-[2-furoyl]-3-methyl-ureido)-2-thienylmethylpenicillin]
[1]
  MIC: > 500 units/ml
[2]
  MIC: ~ 20 units/ml
[3]
  MIC: 20-100 units/ml
[4]
  MIC: 4-20 units/ml
[5]
  MIC: 4-20 units/ml
[6]
  MIC: 20-100 units/ml
[7]
  MIC: < 0.8 units/ml

## CN(C)C(=O)N(C)C(=O)NC(C(=O)N[C@@H]1C(=O)N2[C@@H]1SC(C)(C)[C@@H]2C(=O)O)c1cccs1 (stereo partly drawn) [Example 23, Sodium D,L-α-(3-dimethylaminocarbonyl-3-methyl-ureido)-2-thienylmethylpenicillin]
[1]
  MIC: > 500 units/ml
[2]
  MIC: 100-500 units/ml
[3]
  MIC: > 500 units/ml
[4]
  MIC: 100-500 units/ml
[5]
  MIC: > 500 units/ml
[6]
  MIC: > 500 units/ml
[7]
  MIC: 0.8-4 units/ml

## CSc1ccc(C(NC(=O)N(C)C(=O)c2ccccc2)C(=O)N[C@@H]2C(=O)N3[C@@H]2SC(C)(C)[C@@H]3C(=O)O)cc1 (stereo partly drawn) [Example 33, Sodium α-(3-benzoyl-3-methyl-ureido)-4-methylthiobenzylpenicillin]
[1]
  MIC: 100-500 units/ml
[2]
  MIC: 20-100 units/ml
[3]
  MIC: 4-20 units/ml
[4]
  MIC: 4-20 units/ml
[8]
  MIC: 4-20 units/ml
[6]
  MIC: 4-20 units/ml
[7]
  MIC: < 0.8 units/ml

## CN(C(=O)CCCl)C(=O)NC(C(=O)N[C@@H]1C(=O)N2[C@@H]1SC(C)(C)[C@@H]2C(=O)O)C1CC=CCC1 (stereo partly drawn) [Example 36, Sodium α-(3-β-chloropropionyl-3-methyl-ureido)-cyclohex-3-enylmethylpenicillin]
[1]
  MIC: > 500 units/ml
[2]
  MIC: 100-500 units/ml
[3]
  MIC: > 500 units/ml
[4]
  MIC: 100-500 units/ml
[8]
  MIC: > 500 units/ml
[6]
  MIC: > 500 units/ml
[7]
  MIC: 4-20 units/ml

## Cc1noc(C)c1C(=O)N(C)C(=O)N[C@@H](C(=O)N[C@@H]1C(=O)N2[C@@H]1SC(C)(C)[C@@H]2C(=O)O)c1ccccc1 [Example 76]
[9]
  MIC: ~ 4 units/ml
[7]
  MIC: < 0.8 units/ml

## CC(=O)N(Cc1ccccc1)C(=O)N[C@@H](C(=O)N[C@@H]1C(=O)N2[C@@H]1SC(C)(C)[C@@H]2C(=O)O)c1ccccc1 [Example 87]
[7]
  MIC: < 0.8 units/ml

## CN(C(=O)N[C@@H](C(=O)N[C@@H]1C(=O)N2[C@@H]1SC(C)(C)[C@@H]2C(=O)O)c1ccccc1)C(=O)c1ccco1 [Example 91, Sodium D(-)-α-(3-[2-furoyl]-3-methyl-ureido)-benzylpenicillin]
[7]
  MIC: < 0.8 units/ml

## CCCN(C(=O)N[C@@H](C(=O)N[C@@H]1C(=O)N2[C@@H]1SC(C)(C)[C@@H]2C(=O)O)c1ccccc1)C(=O)c1ccco1 [Example 92 B, Sodium D (-)-α-(3-[2-furoyl]-3-n-propyl-ureido)-benzylpenicillin]
[1]
  MIC: > 500 units/ml
[7]
  MIC: < 0.8 units/ml

## CCN(C(=O)N[C@@H](C(=O)N[C@@H]1C(=O)N2[C@@H]1SC(C)(C)[C@@H]2C(=O)O)c1ccccc1)C(=O)c1ccco1 [Example 93 B, Sodium D(-)-α-(3-[2-furoyl]-3-ethyl-ureido)-benzylpenicillin]
[1]
  MIC: > 500 units/ml
[7]
  MIC: < 0.8 units/ml

## CC1(C)S[C@@H]2[C@H](NC(=O)[C@H](NC(=O)N(C(=O)c3ccccc3)c3ccccc3)c3ccccc3)C(=O)N2[C@H]1C(=O)O [Example 99 B, Sodium D(-)-α-(3-benzoyl-3-phenyl-ureido)-benzylpenicillin]
[1]
  MIC: > 500 units/ml
[2]
  MIC: 100-500 units/ml
[3]
  MIC: > 500 units/ml
[4]
  MIC: 20-100 units/ml
[8]
  MIC: ~500 units/ml
[6]
  MIC: 100-500 units/ml
[7]
  MIC: < 0.8 units/ml

## CC1(C)S[C@@H]2[C@H](NC(=O)[C@H](NC(=O)N3CCCCCC3=O)c3ccccc3)C(=O)N2[C@H]1C(=O)O [Example 101 B, Sodium D(-)-α-(hexahydroazepin-2-on-1-yl-carbonyl-amino)-benzylpenicillin]
[1]
  MIC: > 500 units/ml
[2]
  MIC: ~20 units/ml
[3]
  MIC: 100-500 units/ml
[4]
  MIC: 20-100 units/ml
[8]
  MIC: 100-500 units/ml
[6]
  MIC: 100-500 units/ml
[7]
  MIC: < 0.8 units/ml

## CC1(C)S[C@@H]2[C@H](NC(=O)[C@H](NC(=O)N3CCCC3=O)c3ccccc3)C(=O)N2[C@H]1C(=O)O [Example 102, Sodium D(-)-β-(pyrrolid-2-on-1-yl-carbonylamino)-benzylpenicillin]
[1]
  MIC: > 500 units/ml
[7]
  MIC: < 0.8 units/ml

## CN(C=O)C(=O)N[C@@H](C(=O)N[C@@H]1C(=O)N2[C@@H]1SC(C)(C)[C@@H]2C(=O)O)c1ccccc1 [Example 103, Sodium D(-)-β-(3-formyl-3-methyl-ureido)-benzylpenicillin]
[1]
  MIC: > 500 units/ml
[2]
  MIC: 20-100 units/ml
[4]
  MIC: 4-20 units/ml
[8]
  MIC: 100-500 units/ml
[7]
  MIC: < 0.8 units/ml

## CCN(C(=O)N[C@@H](C(=O)N[C@@H]1C(=O)N2[C@@H]1SC(C)(C)[C@@H]2C(=O)O)c1ccccc1)C(=O)c1ccc(OC)c([N+](=O)[O-])c1 [Example 108, Sodium D(-)-α-(3-[3-nitro-4-methoxy-benzoyl]-3-ethyl-ureido)benzylpenicillin]
[1]
  MIC: > 500 units/ml
[2]
  MIC: ~ 20 units/ml
[3]
  MIC: 100-500 units/ml
[4]
  MIC: 4-20 units/ml
[8]
  MIC: 20-100 units/ml
[10]
  MIC: 0.8-4 units/ml
[6]
  MIC: 20-100 units/ml
[7]
  MIC: < 0.8 units/ml

## CCCN(C(=O)N[C@@H](C(=O)N[C@@H]1C(=O)N2[C@@H]1SC(C)(C)[C@@H]2C(=O)O)c1ccccc1)C(=O)c1ccc(OC)c([N+](=O)[O-])c1 [Example 109, Sodium D(-)-α-(3-[3-nitro-4-methoxybenzoyl]-3-n-propyl-uredio)-benzylpenicillin]
[1]
  MIC: > 500 units/ml
[2]
  MIC: 4-20 units/ml
[3]
  MIC: 100-500 units/ml
[4]
  MIC: 4-20 units/ml
[8]
  MIC: 20-100 units/ml
[6]
  MIC: 50-100 units/ml
[7]
  MIC: 0.8 units/ml

## CC1(C)S[C@@H]2[C@H](NC(=O)[C@H](NC(=O)NC(=O)c3ccccc3)c3ccccc3)C(=O)N2[C@H]1C(=O)O [sodium D(-)-α-(3-benzoylureido)benzylpenicillin, reference compound]
[11]
  MIC: 6.25 units/ml
[5]
  MIC: 50 units/ml
[10]
  MIC: 25 units/ml

## Sodium D(-)-α-(3-[2-furoyl]-3-phenyl-ureido)-benzylpenicillin [Example 105 B]
[1]
  MIC: > 500 units/ml
[2]
  MIC: 20-100 units/ml
[3]
  MIC: 100-500 units/ml
[4]
  MIC: 4-20 units/ml
[8]
  MIC: > 500 units/ml
[6]
  MIC: > 500 units/ml
[7]
  MIC: < 0.8 units/ml
